According to patent publication EP4778924A1 (Huons Co., Ltd., priority 2023, dated 2025):
pIC50: −log10 of the molar value. Where a name gives a salt, the structure may show the parent alone.

biological target: T1, Proton Pump (H^+,K^+-ATPase) (Sus scrofa, UniProt P19156); assay: Inhibitory activity on proton pump (H+,K+-ATPase) activity, porcine gastric vesicles, malachite green readout; type: biochemical; settings: porcine gastric vesicles, pH 6.5, 8 mM KCl, 0.2 mM ATP
T1 construct: gastric vesicles were isolated from porcine stomachs; from tissue; host or cells: porcine stomach (gastric vesicles)
T1 sequence (P19156 2-1034 limits assumed): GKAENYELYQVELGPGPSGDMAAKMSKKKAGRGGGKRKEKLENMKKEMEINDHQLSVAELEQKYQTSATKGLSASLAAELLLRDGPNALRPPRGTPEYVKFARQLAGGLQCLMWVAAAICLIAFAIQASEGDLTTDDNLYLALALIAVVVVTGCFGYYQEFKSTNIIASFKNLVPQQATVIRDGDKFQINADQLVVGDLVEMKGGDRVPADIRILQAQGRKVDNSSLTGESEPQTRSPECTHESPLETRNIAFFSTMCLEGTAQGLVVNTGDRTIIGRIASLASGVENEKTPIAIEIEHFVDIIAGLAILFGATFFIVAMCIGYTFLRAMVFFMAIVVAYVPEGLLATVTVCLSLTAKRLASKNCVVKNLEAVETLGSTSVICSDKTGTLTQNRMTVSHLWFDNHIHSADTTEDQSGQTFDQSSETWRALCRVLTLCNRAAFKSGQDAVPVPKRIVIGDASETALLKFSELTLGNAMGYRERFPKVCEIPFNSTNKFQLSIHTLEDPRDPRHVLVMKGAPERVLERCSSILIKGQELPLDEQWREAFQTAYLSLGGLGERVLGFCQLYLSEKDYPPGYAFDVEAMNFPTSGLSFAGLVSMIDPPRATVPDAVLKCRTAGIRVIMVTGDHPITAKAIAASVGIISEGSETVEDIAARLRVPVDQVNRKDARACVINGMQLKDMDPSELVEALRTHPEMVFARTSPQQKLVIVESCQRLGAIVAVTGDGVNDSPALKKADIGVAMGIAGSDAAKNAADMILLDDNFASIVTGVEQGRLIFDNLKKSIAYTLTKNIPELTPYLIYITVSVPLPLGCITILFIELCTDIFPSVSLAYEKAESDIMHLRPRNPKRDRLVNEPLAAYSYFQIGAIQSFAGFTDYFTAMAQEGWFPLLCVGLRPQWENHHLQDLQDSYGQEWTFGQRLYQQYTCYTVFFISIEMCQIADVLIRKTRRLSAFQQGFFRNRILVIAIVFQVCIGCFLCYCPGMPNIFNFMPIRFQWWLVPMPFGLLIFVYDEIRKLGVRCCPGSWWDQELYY
T1 sequence (P18434 whole entry partner): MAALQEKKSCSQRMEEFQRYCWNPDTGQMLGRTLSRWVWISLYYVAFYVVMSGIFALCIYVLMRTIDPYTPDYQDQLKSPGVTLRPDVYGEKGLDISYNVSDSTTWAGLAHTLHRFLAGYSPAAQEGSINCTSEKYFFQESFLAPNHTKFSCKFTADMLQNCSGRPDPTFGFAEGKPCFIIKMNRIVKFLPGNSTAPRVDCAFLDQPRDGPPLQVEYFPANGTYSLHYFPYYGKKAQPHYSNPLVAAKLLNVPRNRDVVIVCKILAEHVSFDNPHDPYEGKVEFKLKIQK
Description: Specifically, gastric vesicles were isolated from porcine stomachs, and the protein content of the vesicles was quantified using a BSA kit (Bio-Rad, 5000205). All reactions were performed in 96-well plates with a reaction volume of […] containing 100 ng of vesicles. 10 mM valinomycin and the test compound were added to reaction buffer (50 mM Tris-HEPES, 5 mM MgCl2, 8 mM KCl, pH 6.5) containing porcine gastric vesicles at various concentrations, and the mixture was incubated at 37°C for 30 minutes. DMSO or test compounds at different concentrations were added after diluting them to a final DMSO concentration of 0.1%. 0.2 mM adenosine triphosphate (ATP) was then added to the reaction buffer and incubated at 37°C for 20 minutes. The reaction was stopped with 0.2% Tween 20, followed by the addition of malachite green (Sigma Aldrich, MAK307) and incubation at room temperature for 30 minutes. The optical density (OD) value was measured at 620 nm using a microplate reader (Spectramax M5e, Molecular devices). The percent (%) inhibition was derived from the OD values of the control group and various concentrations of the test compounds. The IC50 of the test compounds was analyzed using nonlinear regression using the GraphPad Prism8 program using the % inhibition value at each concentration.

pIC50, 6.30 to 7.00:
Cc1cccc(C)c1CNc1cc(NC(=O)NCC(=O)O)cn2c(C)c(C)nc12 [Example 70, ((8-((2,6-dimethylbenzyl)amino)-2,3-dimethylimidazo[1,2-a]pyridin-6-yl)carbamoyl)glycine hydrochloride]
Cc1cccc(C)c1CNc1cc(NC(=O)NCCC(=O)O)cn2c(C)c(C)nc12 [Example 71, 3-(3-(8-((2,6-dimethylbenzyl)amino)-2,3-dimethylimidazo[1,2-a]pyridin-6-yl)ureido)propionic acid citrate]
Cc1cccc(C)c1CNc1cc(N2C(=O)NCCNC2=O)cn2c(C)c(C)nc12 [Example 72, 3-(8-((2,6-dimethylbenzyl)amino)-2,3-dimethylimidazo[1,2-a]pyridin-6-yl)-1,3,5-triazepane-2,4-dione]
CC(=O)NCCNC(=O)Nc1cc(NCc2c(C)cccc2C)c2nc(C)c(C)n2c1 [Example 73, N-(2-(3-(8-((2,6-dimethylbenzyl)amino)-2,3-dimethylimidazo[1,2-a]pyridin-6-yl)ureido)ethyl)acetamide]
Cc1cccc(C)c1CNc1cc(NC(=O)[C@@]2(C)CCN2)cn2c(C)c(C)nc12 [Example 75, (R)-N-(8-((2,6-dimethylbenzyl)amino)-2,3-dimethylimidazo[1,2-a]pyridin-6-yl)-2-methylazetidine-2-carboxamide hydrochloride]
Cc1cccc(C)c1CNc1cc(NC(=O)N[C@H]2CCc3ccccc32)cn2c(C)c(C)nc12 [Example 78, (S)-1-(2,3-dihydro-1H-inden-1-yl)-3-(8-((2,6-dimethylbenzyl)amino)-2,3-dimethylimidazo[1,2-a]pyridin-6-yl)urea hydrochloride]
CNC(=O)N1CC[C@H]1C(=O)Nc1cc(NCc2c(C)cccc2C)c2nc(C)c(C)n2c1 [Example 79, (S)-N2-(8-((2,6-dimethylbenzyl)amino)-2,3-dimethylimidazo[1,2-a]pyridin-6-yl)-N1-methylazetidine-1,2-dicarboxamide]
Cc1cccc(C)c1CNc1cc(NC(=O)N2CCC(c3ccccc3)CC2)cn2c(C)c(C)nc12 [Example 82, N-(8-((2,6-dimethylbenzyl)amino)-2,3-dimethylimidazo[1,2-a]pyridin-6-yl)-4-phenylpiperidine-1-carboxamide]
Cc1cccc(C)c1CNc1cc(NC(=O)N2CCCC(c3ccccc3)C2)cn2c(C)c(C)nc12 (centres unmarked) [Example 83, N-(8-((2,6-dimethylbenzyll)amino)-2,3-dimethylimidazo[1,2-a]pyridin-6-yl)-3-phenylpiperidine-1-carboxamide]
Cc1cccc(C)c1CNc1cc(NC(=O)N2CCC(c3ccccc3)C2)cn2c(C)c(C)nc12 (centres unmarked) [Example 84, N-(8-((2,6-dimethylbenzyl)amino)-2,3-dimethylimidazo[1,2-a]pyridin-6-yl)-3-phenylpyrrolidine-1-carboxamide]
Cc1cccc(C)c1CNc1cc(NC(=O)[C@H]2CNCCN2)cn2c(C)c(C)nc12 [Example 85, (R)-N-(8-((2,6-dimethylbenzyl)amino)-2,3-dimethylimidazo[1,2-a]pyridin-6-yl)piperazine-2-carboxamide hydrochloride]
Cc1cccc(C)c1CNc1cc(NC(=O)[C@H](C)O)cn2c(C)c(C)nc12 [Example 96, (S)-N-(8-((2,6-dimethylbenzyl)amino)-2,3-dimethylimidazo[1,2-a]pyridin-6-yl)-2-hydroxypropanamide citrate]

pIC50, > 7.30:
Cc1cccc(C)c1CNc1cc(NC(=O)N2CC(=O)C2)cn2c(C)c(C)nc12 [Example 69, N-(8-((2,6-dimethylbenzyl)amino)-2,3-dimethylimidazo[1,2-a]pyridin-6-yl)-3-oxoazetidine-1-carboxamide citrate]
Cc1cccc(C)c1CNc1cc(NC(=O)N2CC(c3ccccc3)C2)cn2c(C)c(C)nc12.O=C(O)CC(O)(CC(=O)O)C(=O)O [Example 77, N-(8-((2,6-dimethylbenzyl)amino)-2,3-dimethylimidazo[1,2-a]pyridin-6-yl)-3-phenylazetidine-1-carboxamide citrate]
Cc1cccc(C)c1CNc1cc(NC(=O)N(C)CCN)cn2c(C)c(C)nc12 [Example 87, 1-(2-aminoethyl)-3-(8-((2,6-dimethylbenzyl)amino)-2,3-dimethylimidazo[1,2-a]pyridin-6-yl)-1-methylurea hydrochloride]
Cc1cccc(C)c1CNc1cc(NC(=O)NCCO)cn2c(C)c(C)nc12 [Example 88, 1-(8-((2,6-dimethylbenzyl)amino)-2,3-dimethylimidazo[1,2-a]pyridin-6-yl)-3-(2-hydroxyethyl)urea citrate]
Cc1cccc(C)c1CNc1cc(NC(=O)C[C@@H]2CCCN2)cn2c(C)c(C)nc12 [Example 93, (S)-N-(8-((2,6-dimethylbenzyl)amino)-2,3-dimethylimidazo[1,2-a]pyridin-6-yl)-2-(pyrrolidin-2-yl)acetamide hydrochloride]
Cc1cccc(C)c1CNc1cc(NC(=O)[C@@H]2CNCCN2)cn2c(C)c(C)nc12 [Example 94, (S)-N-(8-((2,6-dimethylbenzyl)amino)-2,3-dimethylimidazo[1,2-a]pyridin-6-yl)piperazine-2-carboxamide hydrochloride]
Cc1cccc(C)c1CNc1cc(NC(=O)CNC(=O)CO)cn2c(C)c(C)nc12 [Example 95, N-(8-((2,6-dimethylbenzyl)amino)-2,3-dimethylimidazo[1,2-a]pyridin-6-yl)-2-(2-hydroxyacetamido)acetamide]

pIC50, < 6.30:
Cc1cccc(C)c1CNc1cc(NC(=O)N[C@@H]2CCc3ccccc32)cn2c(C)c(C)nc12 [Example 80, (R)-1-(2,3-dihydro-1H-inden-1-yl)-3-(8-((2,6-dimethylbenzyl)amino)-2,3-dimethylimidazo[1,2-a]pyridin-6-yl)urea hydrochloride]
Cc1cccc(C)c1CNc1cc(NC(C)C)cn2c(C)c(C)nc12 [Example 92, N^8-(2,6-dimethylbenzyl)-N^6-isopropyl-2,3-dimethylimidazo [1,2-a] pyridine-6,8-diamine]

pIC50, 7.00 to 7.30:
Cc1cccc(C)c1CNc1cc(NC(=O)N2Cc3ccccc3C2)cn2c(C)c(C)nc12 [Example 67, N-(8-((2,6-dimethylbenzyl)amino)-2,3-dimethylimidazo[1,2-a]pyridin-6-yl)isoindoline-2-carboxamide]
Cc1cccc(C)c1CNc1cc(NC(=O)N2Cc3ccncc3C2)cn2c(C)c(C)nc12 [Example 68, N-(8-((2,6-dimethylbenzyl)amino)-2,3-dimethylimidazo[1,2-a]pyridin-6-yl)-1,3-dihydro-2H-pyrrolo[3,4-c]pyridine-2-carboxamide]
Cc1cccc(C)c1CNc1cc(NC(=O)NCC2CCOC2)cn2c(C)c(C)nc12 (centres unmarked) [Example 74, 1-(8-((2,6-dimethylbenzyl)amino)-2,3-dimethylimidazo[1,2-a]pyridin-6-yl)-3-((tetrohydrofuran-3-yl)methyl)urea hydrochloride]
Cc1cccc(C)c1CNc1cc(NC(=O)C[C@H]2CCN2)cn2c(C)c(C)nc12 [Example 76, (R)-2-(azetidin-2-yl)-N-(8-((2,6-dimethylbenzyl)amino)-2,3-dimethylimidazo[1,2-a]pyridin-6-yl)acetamide hydrochloride]
Cc1cccc(C)c1CNc1cc(NC(=O)CN2CCC2=O)cn2c(C)c(C)nc12 [Example 81, N-(8-((2,6-dimethylbenzyl)amino)-2,3-dimethylimidazo [1,2-a]pyridin-6-yl)-2-(2-oxoazetidin-1-yl)acetamide]
Cc1cccc(C)c1CNc1cc(NC(=O)[C@@H]2CCNC2)cn2c(C)c(C)nc12 [Example 89, (R)-N-(8-((2,6-dimethylbenzyl)amino)-2,3-dimethylimidazo[1,2-a]pyridin-6-yl)pyrrolidine-3-carboxamide hydrochloride]
Cc1cccc(C)c1CNc1cc(NC(=O)[C@H]2CCCCN2)cn2c(C)c(C)nc12 [Example 90, (R)-N-(8-((2,6-dimethylbenzyl)amino)-2,3-dimethylimidazo[1,2-a]pyridin-6-yl)piperidine-2-carboxamide hydrochloride]
Cc1cccc(C)c1CNc1cc(NC(=O)C[C@H]2CCCN2)cn2c(C)c(C)nc12 [Example 91, (R)-N-(8-((2,6-dimethylbenzyl)amino)-2,3-dimethylimidazo[1,2-a]pyridin-6-yl)-2-(pyrrolidin-2-yl)acetamide hydrochloride]
Cc1cccc(C)c1CNc1cc(NC(=O)[C@@H](C)O)cn2c(C)c(C)nc12 [Example 97, (R)-N-(8-((2,6-dimethylbenzyl)amino)-2,3-dimethylimidazo[1,2-a]pyridin-6-yl)-2-hydroxypropanamide citrate]
CNCC(=O)Nc1cc(NCc2c(C)cccc2C)c2nc(C)c(C)n2c1 [Example 98, N-(8-((2,6-dimethylbenzyl)amino)-2,3-dimethylimidazo[1,2-a]pyridin-6-yl)-2-(methylamino)acetamide hydrochloride]

same assay, conditions: result in words

Inhibitory activity against proton pump activity, excellent inhibitory properties:
Cc1cccc(C)c1CNc1cc(NC(=O)N2CC(c3ccccc3)C2)cn2c(C)c(C)nc12.O=C(O)CC(O)(CC(=O)O)C(=O)O [Example 77, N-(8-((2,6-dimethylbenzyl)amino)-2,3-dimethylimidazo[1,2-a]pyridin-6-yl)-3-phenylazetidine-1-carboxamide citrate]
